Data published in patent publication US11244760B2, “Prediction device based on inter-organ cross talk system” (KARYDO THERAPEUTIX, INC., priority 2015, dated 2022).
Several values for one entry are separate records, joined by “and”; a condition that tells them apart may be missing. Equal entries are not always repeated.

How the values were obtained:
[1] = Blood glucose level after administration of STZ (simple blood glucose meter, tail vein); type: in vivo, mouse; conditions: STZ 75 mg/kg intraperitoneally for 3 consecutive days, 4-week-old male C57BL/6NCr Slc mice, fasted overnight; individual animals
Protocol: (§1) 0.01% citrate buffer solution (pH 4.5) of streptozotocin (STZ) was intraperitoneally administered to 4-week-old male C57BL/6NCr Slc mice in an amount of 75 mg/kg in terms of STZ for 3 consecutive days (administered solution amount: 10 mL/kg). 0.01% citrate buffer solution (pH 4.5), which is a solvent, was intraperitoneally administered to the control group for 3 consecutive days (administered solution amount: 10 mL/kg). The animals from which the organs and tissue were to be collected were fasted overnight from the day before dissection. On the day of dissection, the tail vein of each mouse was cut, and the blood glucose level was measured with a simple blood glucose meter. On the following day, the mice were euthanized by cervical dislocation without anesthesia, and the organs and tissue were collected. After the wet weights of the collected organs and tissue were measured, the organs and tissue were rapidly frozen in liquid nitrogen and stored at −80° C.

[2] = Body weight at dissection after administration of STZ; type: in vivo, mouse; conditions: STZ 75 mg/kg intraperitoneally for 3 consecutive days, 4-week-old male C57BL/6NCr Slc mice; individual animals
Protocol: as §1

Hamp = assay: D-iOrgans real-time PCR, STZ/Control relative expression, Hamp; type: in vivo, mouse
Protocol: (§2) 1 μg of total RNA obtained from each tissue was used as a template for cDNA synthesis, and cDNA was synthesized using Oligo dT20 primer according to the standard protocol of Superscript III First-Strand Synthesis Supermix (Life Technologies). After the synthesized cDNA was diluted 20-fold with 10-fold diluted TE buffer (10 mM Tris-HCl, pH 8.0, 0.1 mM EDTA), real-time PCR was performed with a […] (Roche) according to the standard protocol of LightCycler 480 SYBR Green I Master (Roche) and Cp values were measured. The relative expression level of each gene relative to the reference gene was calculated by comparing the Cp value obtained for each gene with the Cp value for β2-microglobulin (B2m) or Maea as a reference gene, and MI/Sham was determined. However, with the primer set for Hba-a, Hba-a1 and Hba-a2 cannot be distinguished in PCR, and with the primer set for Hbb-b, Hbb-bs, and Hbb-bt cannot be distinguished in PCR. […]
(§3) Real-time PCR was conducted according to the procedure described in 1-4 (4) of “I. iOrgans” to measure Cp values. The relative expression level of each gene relative to the reference gene was calculated by comparing the Cp value obtained for each gene with the Cp value for β2-microglobulin (B2m) or Maea as a reference gene to, and STZ/Control was determined. […]

Saa1 = assay: D-iOrgans real-time PCR, STZ/Control relative expression, Saa1; type: in vivo, mouse; conditions: liver of the STZ administration mice
Protocol: as §2, §3

[3] = administered to a mouse for a week or more; cited from earlier work

## CN(N=O)C(=O)N[C@H]1C(O)O[C@H](CO)[C@@H](O)[C@@H]1O (mixture of isomers) [STZ, streptozotocin]
[1]
  Blood glucose: 65 mg/dL and 83 mg/dL and 42 mg/dL
[2]
  Body weight at dissection: 12.8 g (2×) and 10.3 g
Hamp; heart, STZ administration mice, day after 3 days of STZ
  Expression of Hamp in the heart (STZ/Control): increase
Hamp; inferred from known function of Hamp (iron metabolism)
  Predicted side effect in the heart from Hamp expression: decrease the amount of iron in cardiac cells
Saa1
  Expression of Saa1 in the liver (STZ/Control): increase
[3]
  Glycemic state after long administration: becomes hyperglycemic
